The target of this assay is T1, MAP2K6 (MKK6) S207E T211E (Homo sapiens, UniProt P52564, S207E/T211E).
T1 construct: purchased Thermo Fisher Scientific (Life Technologies) SelectScreen
The assay can be described thus: SelectScreen LanthaScreen. In kind it is binding. To be noted: read-out: % displacement. The essentials: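 SelectScreen broad panel; activity (Z'LYTE, Adapta) plus binding formats. ATP: Km app for CSF1R Z'LYTE; 10 for CAMK1 Adapta. Readout = % per kinase.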

The values that follow come from publication PMC6934184, “Selective DNA-PKcs inhibition extends the therapeutic index of localized radiotherapy and chemotherapy” (The Journal of Clinical Investigation, 2019).

T1 sequence (P52564 whole entry S207E/T211E): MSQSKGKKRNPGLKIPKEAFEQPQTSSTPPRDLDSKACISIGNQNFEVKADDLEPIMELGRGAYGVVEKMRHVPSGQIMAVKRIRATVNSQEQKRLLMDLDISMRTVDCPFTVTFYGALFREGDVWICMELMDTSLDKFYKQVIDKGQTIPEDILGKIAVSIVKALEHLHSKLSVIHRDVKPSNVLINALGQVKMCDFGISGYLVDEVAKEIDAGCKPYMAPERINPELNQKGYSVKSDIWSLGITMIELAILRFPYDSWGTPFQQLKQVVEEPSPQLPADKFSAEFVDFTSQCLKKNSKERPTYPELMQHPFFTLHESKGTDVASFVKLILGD

In the case of `CN(C(=O)CN1CCOCC1)c1ccc2sc3c(-c4cccc5c(=O)cc(N6CC7CCC(C6)O7)oc45)cccc3c2c1` [NU5455], the inhibition at 1 µM is -4.9%.
